Experiments:
[1] = system: breast cell lines (SK-BR-3 and BT474 versus lines with lower HER2); test: sensitivity of breast cell lines by HER2 level; assay type: cell-based; conditions: very high HER2 lines versus lower HER2 lines
Description: Certain embodiments of immunoconjugates described herein are targeted to HER2 expressing breast cancer cells. Certain embodiments of immunoconjugates described herein are targeted to multiple myeloma (MM) cell lines expressing the surface antigens CD38 and or CD138. The IC50 value of […] and ON 013100 was determined for a number of breast cell lines as well as a panel of multiple myeloma cell lines expressing varying levels of each antigen and the data are shown in table (4) and table (5), respectively. […] Two cell lines, SK-BR-3 and BT474, known to express very high levels of HER2 are more than 2 fold more sensitive to ON 013100 as compared to the cell lines which express lower levels of HER2. Marx C., et al., Validated High-Throughput Screening of Drug-Like Small Molecules for Inhibitors of ErbB2 Transcription. Assay Drug Dev. Technology 4(3):273-84 (2006); Lostumbo, A., et al., Flow Cytometry: A New Approach For The Molecular Profiling Of Breast Cancer, Exp. and Molecular Pathology 80:46-53 (2006).

[2] = system: 22RV1 prostate carcinoma cells; test: dose response assay, 22RV1 cells; assay type: cell-based; conditions: Homo sapiens
Description: The penultimate precursor to compound ON 14013100 (an NHS-activated prodrug of ON 013100)—ON 13013100—lacks the activating group for conjugation to mAbs, and served as a suitable candidate to test for plasma stability. […] See, FIG. 4 which illustrates a dose response assay comparing ON 013100 to its linked version, ON 013013100. 22RV1 cells were treated with various concentrations of ON 013100 and its linked version […]. […] Current synthetic work is now focusing towards optimizing a variety of parameters (i.e. spacer length and type, mAb conjugation method, etc.) associated with the current result. Future studies will involve the synthesis and evaluation of a diverse collection of ON 01500 and ON 013100 prodrugs with the ultimate goal of improving pharmacokinetics, blood compartment stability, and intratumoral accumulation and drug release. Infra; see, Examples.

[3] = system: normal human umbilical vein endothelial cells; test: FACS cell cycle, HUVEC; assay type: cell-based; conditions: HUVECs, 20 nM, treated over 72 hours
Description: (§1) Treatment of cancer cells with either of these two compounds will result in a mitotic arrest followed by the onset of apoptosis in a dose dependent manner. FACS analysis of normal and tumor cells treated with ON 01500 and ON 013100. A. Cells treated for 24 hrs with ON 01500. B. Cells treated with ON 013100 (20 nM) and harvested at various time points thereafter. FIG. 6. […] ON 013100 treatment of normal human umbilical vein endothelial cells (HLVECs) results in a similar cell cycle distribution. FIG. 6.B illustrates cells that have been treated over 72 hours. […] This characteristic should greatly increase the “therapeutic window” of the resulting immunoconjugates since there are now two layers of selectivity. The first being the selective binding and release of the cytotoxic compound only in cells expressing the tumor specific antigen, and the innate selectivity of the compounds themselves. This will provide additional protection of the patient if non-selective binding or release occurs.

[4] = system: multiple myeloma cell lines; test: growth inhibition, multiple myeloma cell lines (panel statement); assay type: cell-based, Human; conditions: statement in words
Excerpt: Pellat-Deceunynk, C., et al., Human Myeloma Cell Lines As A Tool For Studying The Biology Of Multiple Myeloma: A Reappraisal 18 Years After, Blood 86(10):4001-2 (1995); Gooding, R. P., et al., Phenotypic And Molecular Analysis Of Six Human Cell Lines Derived From Patients With Plasma Cell Dyscrasia, British Journal of Haematology 106:669-688 (1999).

[5] = system: prostate cancer cells (DU145); test: FACS cell cycle and apoptosis, DU145; assay type: cell-based; conditions: 20 nM, treated over 72 hours
Description: as §1

[6] = system: Human breast carcinoma (BT20) cells; test: nude mouse xenograft model, BT20; assay type: in vivo; conditions: 10 mg/kg by IP injections, Q2Dx3
Description: Human breast carcinoma (BT20) cells were injected subcutaneously into female athymic nude mice (ncr/ncr). […] The average tumor volume and body weights were determined on the indicated days.
BT20 cells were injected in female nude mice. The mice (N=5-8) were treated with ON 01500 (Panel A.) at 10 mg/kg by IP injections or Vehicle alone (DMSO) every other day Q2Dx3.

Row | SMILES | fold more sensitive, SK-BR-3 and BT474 compared to cell lines which express lower levels of HER2 [1] | IC50 [2] [nM] | cell cycle distribution (FACS) [3] | IC50 values, multiple myeloma cell lines [4] | cell cycle distribution and apoptosis (FACS) [5] | weight loss or toxicity [6]
1 | COc1cc(OC)c(/C=C/S(=O)(=O)Cc2ccc(OC)c(O)c2)c(OC)c1 [ON 013100, (E)-5-((2,4,6-trimethoxystyrylsulfonyl)methyl)-2-methoxyphenol] | more than 2 fold | 10 | arrest in the G1 stage of the cell cycle | nearing picomolar concentrations | G2/M arrest followed by apoptosis in a time dependent manner | –
2 | COc1cc(OC)c(/C=C/S(=O)(=O)Cc2ccc(OC)c(N)c2)c(OC)c1 [ON 01500, (E)-2,4,6-trimethoxystyryl-4-methoxy-3-aminobenzylsulfone] | – | – | – | – | – | without any signs of weight loss or toxicity
